Reference: patent US20200179488A1, “Secretin Receptor Agonists to Treat Diseases or Disorders of Energy Homeostasis” (Technische Universität München, priority 2016, published 2020)

Tests used:
wildtype mice = assay: Indirect calorimetry, heat production after i.p. injection in wildtype mice; format: in vivo, Mus musculus; details: 0.5 mg/kg i.p., 27° C.
Description: Indirect calorimetric measurements in mice were performed using an open flow respirometry system (Phenomaster, TSE Systems, Bad Homburg/Germany). All animals were kept at room temperature or cold-acclimated at 4° C. for 4 days as indicated in the results section. For the gas exchange measurement (O2 consumption and CO2 production) mice were placed individually in metabolic cages (type I, 3 liter volume) without food and water and transferred to a climate cabinet (TPK 600, Feutron, Greiz/Germany). The air was continuously pulled through the cages at a flow rate of 33 l/h. For gas analysis a subsample was dried in a cooling trap and analyzed for gas exchange. Mice in the cabinet were preconditioned to 30° C. and the basal metabolic rate (BMR) in the post-absorptive state was measured between 8:00 a.m.-12:00 p.m. The O2 consumption and CO2 production of each mouse was analyzed every 5 min over a period of 1 min. […] After injection the O2 consumption and CO2 production rate of each mouse was recorded for 45-60 min with high-resolution recordings at 10 sec intervals. […] Respiratory exchange ratios (RER) and heat production (HP) were calculated from the following formula: (RER=CO2 production/O2 consumption) and (HP[mW]=(4.44+1.43*respiratory exchange ratio)*oxygen consumption [ml/h]).

UCP1 knockout mice = assay: Food intake on refeeding of fasted Ucp1 knockout mice; format: in vivo, Mus musculus; details: fasted 18 h, 5 nmol i.p., 4 hours of refeeding, compared to wildtype (FIG. 8)
Description: For the measurement of food intake, a feeding-drinking-activity (FDA) device was used (TSE Systems, Bad Homburg/Germany). During the measurement mice were single-housed in type-III cages. Mice were habituated to the new cage environment and received every morning at 10 a.m. a single daily intraperitoneal (i.p.) PBS-injection for four days ahead of the experiment start. The body weight of the mice was measured every day. On day four day of habituation the food was removed from the cages at 5 p.m., and the mice were food deprived over night with ad libitum access to water. On the next morning, mice were i.p. injected with either PBS as control or secretin (rat, Tocris, Art Nr 1919). The latter was given in different doses. Subsequently the mice were refed ad libitum while monitoring food intake during the following 72 hours. […] Food intake was calculated from the decrease in feeder weight. The results were exported into a spreadsheet calculation table (Excel, Microsoft) and analyzed with a software package for statistics and graphics (GraphPad Prism 4.0, GraphPad Software, San Diego, USA).
Next to thermogenesis, brown fat has been proposed to function in the thermoregulatory control of feeding. […] Just before refeeding, mice were intra-peritoneally injected with 5 nmol secretin solved in PBS, or PBS as the vehicle control, and food intake was monitored for the following three days.

Substance: secretin
- AUC of heat production versus PBS (wildtype mice; 129/S6 wildtype mice, 45 minutes, basal subtracted, p=0.001 (FIG. 5B)): significant increase in the AUC
- AUC of heat production versus PBS (wildtype mice; wildtype mice of 129/S1-UCP1 knockout strain, 60 minutes, p=0.002 (FIG. 6C)): higher AUC
- refeeding food intake in Ucp1 knockout mice (UCP1 knockout mice): did not inhibit refeeding
